Reference: paper PMC7967212, “Vitamin D Compounds PRI-2191 and PRI-2205 Enhance Anastrozole Activity in Human Breast Cancer Models” (International Journal of Molecular Sciences, 2021)

Target: T1, aromatase (CYP19) (Homo sapiens, UniProt P11511)
T1 construct: gene CYP19A1
T1 sequence (P11511 1-503): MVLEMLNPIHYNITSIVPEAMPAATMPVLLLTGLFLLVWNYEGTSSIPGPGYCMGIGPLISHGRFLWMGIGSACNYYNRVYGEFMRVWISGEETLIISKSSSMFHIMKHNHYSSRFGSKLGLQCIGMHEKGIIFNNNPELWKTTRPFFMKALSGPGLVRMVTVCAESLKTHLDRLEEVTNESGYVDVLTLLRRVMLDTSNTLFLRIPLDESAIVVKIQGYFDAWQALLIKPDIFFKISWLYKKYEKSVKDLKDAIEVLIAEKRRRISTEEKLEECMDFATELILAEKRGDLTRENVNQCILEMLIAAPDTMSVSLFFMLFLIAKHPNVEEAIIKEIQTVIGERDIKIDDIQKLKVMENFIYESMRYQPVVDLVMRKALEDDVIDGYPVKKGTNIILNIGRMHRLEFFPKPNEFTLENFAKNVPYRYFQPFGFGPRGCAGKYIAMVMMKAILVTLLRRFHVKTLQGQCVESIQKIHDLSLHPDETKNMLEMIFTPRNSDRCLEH
Assay: CYP19/MFC High Throughput Inhibitor Screening Kit (Corning No. […]), fluorogenic enzyme inhibition
Type: biochemical

C=C1/C(=C\C=C2/CCC[C@]3(C)[C@@H]([C@H](C)CC[C@@H](O)C(C)C)CC[C@@H]23)C[C@@H](O)C[C@@H]1O [PRI-2191]
IC50: 152 ± 30.5 nM
